According to ChEMBL document CHEMBL3611997, “4-Fluoro-3',4',5'-trimethoxychalcone as a new anti-invasive agent. From discovery to initial validation in an in vivo metastasis model” (Eur J Med Chem, 2015):
In brackets after ≈: the same amount, converted by molar mass. Activity calls are given as the source filed them. The calls are words filed in the database; no cut-off is given here.

What was measured:
[1] = Antiinvasive activity in human MCF7/6 cells assessed as Cmin for progressive occupation of chicken precultured heart tissue fragments after 8 days by chick heart invasion assay; type: functional
SK-OV-3 = experiment: Antiinvasive activity in human in SKOV3 cells assessed as reduction of amount of cells present on filter at 0.1 umol/L after 24 hrs by matrigel invasion assay (reference value: 100%); type: functional; set-up: scale not given: the % may be the effect or the level left
[2] = Aqueous solubility of the compound in simulated intestinal fluid at 200 umol/L; type: physicochemical
[3] = Half life of the compound in simulated intestinal fluid at 1 umol/L; type: ADME
[4] = Half life of the compound in simulated gastric fluid at 1 umol/L; type: ADME
[5] = Half life in human blood at 1 umol/L; type: ADME, tissue-based
[6] = Protein binding in human plasma at 10 umol/L; type: ADME, cell-free; details: read-out: PPB (converted)
CYP1A2 = target: T1, CYP1A2 (Homo sapiens, UniProt P05177); experiment: Inhibition of CYP1A2 (unknown origin) at 10 umol/L; type: ADME
T1 sequence (P05177 whole entry): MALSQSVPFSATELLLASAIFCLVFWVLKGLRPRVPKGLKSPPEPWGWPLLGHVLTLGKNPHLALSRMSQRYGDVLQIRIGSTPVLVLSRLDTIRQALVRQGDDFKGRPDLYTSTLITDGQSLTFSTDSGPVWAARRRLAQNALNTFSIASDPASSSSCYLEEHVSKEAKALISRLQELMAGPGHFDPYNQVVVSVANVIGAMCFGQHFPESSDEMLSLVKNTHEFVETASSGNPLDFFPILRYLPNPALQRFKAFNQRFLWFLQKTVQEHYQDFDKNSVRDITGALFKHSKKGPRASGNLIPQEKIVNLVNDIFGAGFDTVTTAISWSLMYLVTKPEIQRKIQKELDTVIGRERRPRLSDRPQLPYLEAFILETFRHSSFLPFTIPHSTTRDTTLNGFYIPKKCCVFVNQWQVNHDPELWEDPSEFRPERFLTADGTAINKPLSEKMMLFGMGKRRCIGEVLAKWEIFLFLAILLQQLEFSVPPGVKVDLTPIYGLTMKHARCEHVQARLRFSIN

CYP3A4 = CYP3A4 (Homo sapiens, UniProt P08684); experiment: Inhibition of CYP3A4 (unknown origin) at 10 umol/L; type: ADME
CYP3A4, sequence (P08684 whole entry): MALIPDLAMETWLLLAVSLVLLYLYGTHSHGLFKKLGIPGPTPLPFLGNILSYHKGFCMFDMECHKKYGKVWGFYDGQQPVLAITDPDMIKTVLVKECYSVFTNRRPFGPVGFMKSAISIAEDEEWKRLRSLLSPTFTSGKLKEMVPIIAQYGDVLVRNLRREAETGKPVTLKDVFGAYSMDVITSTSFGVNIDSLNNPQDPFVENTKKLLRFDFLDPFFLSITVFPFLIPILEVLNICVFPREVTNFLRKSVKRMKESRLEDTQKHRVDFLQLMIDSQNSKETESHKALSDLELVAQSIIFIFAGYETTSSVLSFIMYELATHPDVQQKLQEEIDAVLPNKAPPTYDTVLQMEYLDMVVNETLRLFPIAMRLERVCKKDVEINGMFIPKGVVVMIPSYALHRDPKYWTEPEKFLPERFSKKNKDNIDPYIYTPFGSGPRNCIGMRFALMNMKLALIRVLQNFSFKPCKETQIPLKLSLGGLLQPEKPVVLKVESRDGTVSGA

[7] = Intrinsic clearance in Sprague-Dawley rat liver S9 fraction at 0.1 umol/L; type: ADME, subcellular; details: read-out: CLH
[8] = Permeability across apical to basolateral side of human Caco2 cells at 10 umol/L at pH 7.4; type: ADME, cell-based; details: Caco-2, pH 7.4, read-out: permeability
hERG = hERG (Homo sapiens, UniProt Q12809); experiment: Inhibition of human ERG assessed as reduction of tail current at 10 umol/L
hERG, sequence (Q12809 whole entry): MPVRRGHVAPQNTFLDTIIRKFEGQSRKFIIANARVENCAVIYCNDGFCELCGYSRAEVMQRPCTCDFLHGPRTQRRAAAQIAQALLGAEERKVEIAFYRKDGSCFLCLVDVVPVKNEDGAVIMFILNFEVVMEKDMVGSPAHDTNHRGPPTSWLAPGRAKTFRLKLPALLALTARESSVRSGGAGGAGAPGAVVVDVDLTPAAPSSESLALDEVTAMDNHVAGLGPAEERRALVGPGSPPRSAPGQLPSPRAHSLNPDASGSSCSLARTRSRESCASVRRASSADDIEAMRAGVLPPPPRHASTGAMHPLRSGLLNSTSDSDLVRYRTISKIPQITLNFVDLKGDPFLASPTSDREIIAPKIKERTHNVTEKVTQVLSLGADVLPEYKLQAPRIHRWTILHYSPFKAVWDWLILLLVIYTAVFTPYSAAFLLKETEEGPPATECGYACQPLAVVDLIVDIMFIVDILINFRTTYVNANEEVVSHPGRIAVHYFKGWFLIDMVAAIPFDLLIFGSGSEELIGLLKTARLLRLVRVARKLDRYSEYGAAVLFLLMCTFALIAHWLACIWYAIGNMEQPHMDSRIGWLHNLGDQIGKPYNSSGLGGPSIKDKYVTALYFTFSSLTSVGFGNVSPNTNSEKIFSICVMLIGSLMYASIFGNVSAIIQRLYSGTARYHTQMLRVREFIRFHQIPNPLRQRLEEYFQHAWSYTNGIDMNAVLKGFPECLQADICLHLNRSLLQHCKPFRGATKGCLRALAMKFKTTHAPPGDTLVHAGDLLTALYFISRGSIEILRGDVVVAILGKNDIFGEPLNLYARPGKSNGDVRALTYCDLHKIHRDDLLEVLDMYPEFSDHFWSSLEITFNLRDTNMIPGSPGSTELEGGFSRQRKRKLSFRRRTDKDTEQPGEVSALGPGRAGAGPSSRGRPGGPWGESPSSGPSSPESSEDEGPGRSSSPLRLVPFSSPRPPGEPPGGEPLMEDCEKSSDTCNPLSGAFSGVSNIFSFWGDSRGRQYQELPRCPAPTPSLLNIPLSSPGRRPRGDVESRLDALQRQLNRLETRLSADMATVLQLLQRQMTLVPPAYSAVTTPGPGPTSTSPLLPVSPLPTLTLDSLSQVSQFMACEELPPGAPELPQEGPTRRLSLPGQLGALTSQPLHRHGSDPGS

Homo sapiens = organism: Homo sapiens; experiment: Displacement of [3H]-quinuclydinyl benzylate from muscarinic receptor (unknown origin) at 10 umol/L
[9] = Toxicity in human HepG2 cells assessed as cell viability at 1 umol/L; type: cell-based; details: read-out: Activity
Mus musculus [10] = experiment: Toxicity in Swiss nu/nu mouse assessed as histological anomalies in kidney at 1.6 to 160 mg/kg, ip administered three times a week for two-week period measured on day 15; type: organism-based; details: in vivo
Mus musculus [11] = experiment: Toxicity in Swiss nu/nu mouse assessed as histological anomalies in spleen at 1.6 to 160 mg/kg, ip administered three times a week for two-week period measured on day 15; type: organism-based; details: in vivo
Mus musculus [12] = experiment: Toxicity in Swiss nu/nu mouse assessed as hematological anomalies by measuring AST level at 16 mg/kg, ip administered three times a week for two-week period measured on day 15 (reference value: 254.2 +/- 144.6 IU/L); type: organism-based; details: in vivo
Mus musculus [13] = experiment: Toxicity in Swiss nu/nu mouse assessed as hematological anomalies by measuring AST level at 160 mg/kg, ip administered three times a week for two-week period measured on day 15 (reference value: 254.2 +/- 144.6 IU/L); type: organism-based; details: in vivo
Mus musculus [14] = experiment: Toxicity in Swiss nu/nu mouse assessed as hematological anomalies by measuring ALT level at 160 mg/kg, ip administered three times a week for two-week period measured on day 15 (reference value: 29.6 +/- 5.6 IU/L); type: organism-based; details: in vivo
Mus musculus [15] = experiment: Toxicity in Swiss nu/nu mouse assessed as hematological anomalies by measuring creatinine level at 16 mg/kg, ip administered three times a week for two-week period measured on day 15 (reference value: 0.29 +/- 0.02 mg/dL); type: organism-based; details: in vivo
Mus musculus [16] = experiment: Toxicity in Swiss nu/nu mouse assessed as hematological anomalies by measuring creatinine level at 160 mg/kg, ip administered three times a week for two-week period measured on day 15 (reference value: 0.29 +/- 0.02 mg/dL); type: organism-based; details: in vivo
[17] = Antimetastasis activity against human MCF7/6 cells xenografted in Swiss nu/nu mouse assessed as increase of survival time at 160 mg/kg, ip administered thrice a week relative to control; type: functional
Mus musculus [18] = experiment: Toxicity in human MCF7/6 cells xenografted Swiss nu/nu mouse assessed as macroscopic metastases at 160 mg/kg, ip administered thrice a week measured after 3 months; type: organism-based; details: in vivo, 2191.5 h
MCF7/6 = experiment: Inhibition of cell migration in human MCF7/6 cells at 0.01 to 10 umol/L after 24 hrs by wound scratch assay; type: functional, cell-based
[19] = Cytotoxicity against human MCF7/6 cells assessed as reduction of mitochondrial activity at 0.01 to 100 umol/L after 6 days by MTT assay; type: cell-based; details: mcf7/6, 144 h
[20] = Cytotoxicity against human MCF7/6 cells assessed as reduction of mitochondrial activity at 10 to 100 umol/L after 8 days by MTT assay; type: cell-based; details: mcf7/6, 192 h
MDA-MB-231 = experiment: Cytotoxicity against human MDA-MB-231 cells expressing GFP assessed as reduction of mitochondrial activity at 0.01 to 100 umol/L after 6 days by MTT assay; type: cell-based; details: mda-mb-231, 144 h
[21] = Cytotoxicity against human BLM cells assessed as reduction of mitochondrial activity at 0.01 to 1 umol/L after 24 hrs by MTT assay; type: cell-based
[22] = Cytotoxicity against human BLM cells assessed as reduction of mitochondrial activity at > 10 umol/L after 24 hrs by MTT assay; type: cell-based
[23] = target: Vascular endothelial growth factor receptor 2 (Homo sapiens) (UniProt P35968); experiment: Inhibition of human KDR using and Ulight-CAGAGAIETDKEYYTVKD as substrate at 0.1 umol/L after 1 hr by FRET assay
Vascular endothelial growth factor receptor 2 (Homo sapiens), sequence (P35968 whole entry): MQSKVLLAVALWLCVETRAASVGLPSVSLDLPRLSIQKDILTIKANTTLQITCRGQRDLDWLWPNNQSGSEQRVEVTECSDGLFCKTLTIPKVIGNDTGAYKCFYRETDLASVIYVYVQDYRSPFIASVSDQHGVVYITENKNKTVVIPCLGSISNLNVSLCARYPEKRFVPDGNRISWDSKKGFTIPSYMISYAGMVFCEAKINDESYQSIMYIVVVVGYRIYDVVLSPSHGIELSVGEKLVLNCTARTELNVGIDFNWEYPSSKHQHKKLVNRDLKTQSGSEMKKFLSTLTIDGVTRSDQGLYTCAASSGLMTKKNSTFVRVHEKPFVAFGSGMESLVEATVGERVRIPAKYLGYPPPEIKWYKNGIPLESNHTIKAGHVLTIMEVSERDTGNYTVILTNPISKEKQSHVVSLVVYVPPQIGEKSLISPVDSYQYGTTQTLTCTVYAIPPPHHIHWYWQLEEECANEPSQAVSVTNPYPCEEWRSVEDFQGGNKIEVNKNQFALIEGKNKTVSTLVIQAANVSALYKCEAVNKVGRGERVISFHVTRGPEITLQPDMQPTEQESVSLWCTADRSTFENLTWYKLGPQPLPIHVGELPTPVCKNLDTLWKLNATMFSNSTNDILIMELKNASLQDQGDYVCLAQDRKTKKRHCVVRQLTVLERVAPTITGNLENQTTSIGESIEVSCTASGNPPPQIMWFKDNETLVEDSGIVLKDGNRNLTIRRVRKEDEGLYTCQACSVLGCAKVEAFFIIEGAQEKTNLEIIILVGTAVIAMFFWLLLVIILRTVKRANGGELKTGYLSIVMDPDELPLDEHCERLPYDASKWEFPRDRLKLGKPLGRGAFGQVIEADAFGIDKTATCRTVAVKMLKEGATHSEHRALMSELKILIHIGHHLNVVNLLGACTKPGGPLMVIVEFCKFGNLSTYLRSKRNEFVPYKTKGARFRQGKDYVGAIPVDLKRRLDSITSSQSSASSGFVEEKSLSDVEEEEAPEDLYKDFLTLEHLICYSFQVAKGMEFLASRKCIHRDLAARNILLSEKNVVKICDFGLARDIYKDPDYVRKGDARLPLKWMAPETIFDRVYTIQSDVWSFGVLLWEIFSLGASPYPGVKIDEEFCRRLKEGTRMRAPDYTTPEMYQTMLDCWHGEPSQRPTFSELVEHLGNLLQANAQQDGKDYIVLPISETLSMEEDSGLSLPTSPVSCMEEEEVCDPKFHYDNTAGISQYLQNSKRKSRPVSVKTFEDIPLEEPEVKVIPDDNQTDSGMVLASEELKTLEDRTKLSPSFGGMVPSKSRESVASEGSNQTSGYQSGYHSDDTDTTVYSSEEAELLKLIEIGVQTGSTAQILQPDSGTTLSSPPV

With `COc1cc(C(=O)/C=C/c2ccc(F)cc2)cc(OC)c1OC` the Cmin [1] was 0.01 µmol/L, the Activity (SK-OV-3) was 85% and the solubility at 200 µM [2] was 7.9 µM (≈ 2.5 µg/mL). For the same compound, the half-life at 1 µM [3] was over 240 min, the half-life at 1 µM [4] was over 60 min and the half-life at 1 µM [5] was 10 min. It also gave a fraction unbound at 10 µM [6] of 0.01, an inhibition at 10 µM (CYP1A2) of 35.7% and an inhibition at 10 µM (CYP3A4) of 27.2%. It also gave a microsomal CLint at 0.1 µM [7] of 116 µL/min/mg, a Papp A→B at 10 µM [8] of 10.4 ×10⁻⁶ cm/s and an inhibition at 10 µM (hERG) of 28.3%. The inhibition (Homo sapiens) was -5.1%, the viability at 1 µM [9] was 93.8% and the Activity (Mus musculus [10]) was “Non-toxic”. The Activity (Mus musculus [11]) was “Non-toxic”, the Activity (Mus musculus [12]) was 167.5 IU/L and the Activity (Mus musculus [13]) was 207.8 IU/L. For the same compound, the Activity (Mus musculus [14]) was 33.2 IU/L, the Activity (Mus musculus [15]) was 0.32 mg/dL and the Activity (Mus musculus [16]) was 0.28 mg/dL. For the same compound, the Survival [17] was 34 days, the Activity (Mus musculus [18]) was “Non-toxic” and the inhibition (MCF7/6) was “inactive”. The Activity [19] was “Non-toxic”, the Activity [20] was “Toxic” and the Activity (MDA-MB-231) was “Non-toxic”. For the same compound, the Activity [21] was “Non-toxic”, the Activity [22] was “Toxic” and the inhibition [23] was -3.5%.
